Experimental data: the NIST ThermoML archive (doi:10.1016/j.jct.2016.01.019)
Numbers after ± are expanded uncertainties.

Assay: refractive index (other wavelength) (dimensionless); xn = mol fraction of the nth substance listed
Conditions: 94.64 kPa, Liquid, Standard Abbe refractometry

OCCCO [propan-1,3-diol] + CC(O)CO
refractive index
Conditions | x2 = 0 | x2 = 0.0985 | x2 = 0.2023 | x2 = 0.3015 | x2 = 0.3961 | x2 = 0.5009 | x2 = 0.5961 | x2 = 0.6965 | x2 = 0.7974 | x2 = 0.8985
313.15 K, Wavelength=587.6 nm | 1.43392 ± 0.002 | 1.43331 ± 0.002 | 1.43262 ± 0.002 | 1.43194 ± 0.002 | 1.43132 ± 0.002 | 1.43077 ± 0.002 | 1.43006 ± 0.002 | 1.42912 ± 0.002 | 1.42824 ± 0.002 | 1.42705 ± 0.002
313.15 K, Wavelength=632.8 nm | 1.43238 ± 0.002 | 1.43157 ± 0.002 | 1.43095 ± 0.002 | 1.43031 ± 0.002 | 1.42988 ± 0.002 | 1.42924 ± 0.002 | 1.42852 ± 0.002 | 1.42758 ± 0.002 | 1.42673 ± 0.002 | 1.42553 ± 0.002
313.15 K, Wavelength=644 nm | 1.43203 ± 0.002 | 1.43122 ± 0.002 | 1.43065 ± 0.002 | 1.42997 ± 0.002 | 1.42954 ± 0.002 | 1.429 ± 0.002 | 1.42818 ± 0.002 | 1.42724 ± 0.002 | 1.42638 ± 0.002 | 1.42518 ± 0.002
313.15 K, Wavelength=706.5 nm | 1.43035 ± 0.002 | 1.42953 ± 0.002 | 1.42898 ± 0.002 | 1.4284 ± 0.002 | 1.42788 ± 0.002 | 1.42723 ± 0.002 | 1.42653 ± 0.002 | 1.42558 ± 0.002 | 1.4247 ± 0.002 | 1.42352 ± 0.002
318.15 K, Wavelength=404.7 nm | 1.44474 ± 0.002 | 1.44416 ± 0.002 | 1.44346 ± 0.002 | 1.44271 ± 0.002 | 1.4421 ± 0.002 | 1.44134 ± 0.002 | 1.44059 ± 0.002 | 1.43957 ± 0.002 | 1.43859 ± 0.002 | 1.43751 ± 0.002
318.15 K, Wavelength=435.8 nm | 1.44141 ± 0.002 | 1.44072 ± 0.002 | 1.44015 ± 0.002 | 1.43938 ± 0.002 | 1.43872 ± 0.002 | 1.438 ± 0.002 | 1.43725 ± 0.002 | 1.43624 ± 0.002 | 1.43526 ± 0.002 | 1.43417 ± 0.002
318.15 K, Wavelength=486.1 nm | 1.43754 ± 0.002 | 1.43671 ± 0.002 | 1.43608 ± 0.002 | 1.43535 ± 0.002 | 1.43468 ± 0.002 | 1.43396 ± 0.002 | 1.43322 ± 0.002 | 1.43243 ± 0.002 | 1.43145 ± 0.002 | 1.43035 ± 0.002
318.15 K, Wavelength=546.1 nm | 1.43429 ± 0.002 | 1.43372 ± 0.002 | 1.43312 ± 0.002 | 1.43243 ± 0.002 | 1.43177 ± 0.002 | 1.43107 ± 0.002 | 1.43022 ± 0.002 | 1.42925 ± 0.002 | 1.42827 ± 0.002 | 1.42718 ± 0.002
318.15 K, Wavelength=587.6 nm | 1.43261 ± 0.002 | 1.43191 ± 0.002 | 1.43127 ± 0.002 | 1.43053 ± 0.002 | 1.42988 ± 0.002 | 1.42918 ± 0.002 | 1.42854 ± 0.002 | 1.42758 ± 0.002 | 1.42659 ± 0.002 | 1.42551 ± 0.002
318.15 K, Wavelength=632.8 nm | 1.43109 ± 0.002 | 1.43037 ± 0.002 | 1.42963 ± 0.002 | 1.42894 ± 0.002 | 1.42826 ± 0.002 | 1.42752 ± 0.002 | 1.42682 ± 0.002 | 1.42606 ± 0.002 | 1.42507 ± 0.002 | 1.424 ± 0.002
318.15 K, Wavelength=644 nm | 1.43075 ± 0.002 | 1.43013 ± 0.002 | 1.4294 ± 0.002 | 1.42884 ± 0.002 | 1.42811 ± 0.002 | 1.42748 ± 0.002 | 1.42668 ± 0.002 | 1.42572 ± 0.002 | 1.42473 ± 0.002 | 1.42365 ± 0.002
318.15 K, Wavelength=706.5 nm | 1.42908 ± 0.002 | 1.42827 ± 0.002 | 1.4276 ± 0.002 | 1.42698 ± 0.002 | 1.42645 ± 0.002 | 1.42575 ± 0.002 | 1.425 ± 0.002 | 1.42406 ± 0.002 | 1.42308 ± 0.002 | 1.42199 ± 0.002
